Measured values reported in patent US11197812B2, “Cosmetic formulations for topical applications containing erythropoietin-derived molecules” (ASC REGENITY LTD., priority 2016, dated 2021).
Where no end group is shown, it is not given here.

Legend:
[1] = tested on: severe acne on the face and neck; test: Acne Trial 1 (single test person); type: in vivo, human; conditions: after one week of treatment with the respective formulation
Description: The test person was a person with severe acne on the face and neck. They were treated for one week with a standard cosmetic formulation based on a control lipid (dexpanthenol/panthenol), but without a polypeptide according to the invention. […] Then a cosmetic formulation according to the invention was applied, but again without a polypeptide according to the invention. The formulation contained ceramides and lecithin instead of dexpanthanol, and amino acids such as L-arginine. […] The test person then was treated with a formulation of the invention now comprising “Peptide 0”. […] After 3 weeks the test person was treated with the same formulation but which now comprised “Peptide 4” instead of the reference polypeptide (“Peptide 0”).

[2] = tested on: persons suffering from acne; conditions: human, in vivo
Description: Four test groups (corresponding to the “peptides, 0, 2, 3 and 4”) with each five persons (in total, 20 subjects) suffering from acne, were treated twice daily with a formulation of the invention (“iARP-lotion” with trigger factor complex) for one week. No undesirable or even pathological lesions in the relevant skin area of the test persons were observed.

[3] = tested on: facial skin of healthy subjects; test: Cosmetic skin improvement assay (Canfield VISIA facial skin analysis); type: in vivo, human; conditions: cream once a day, after one month, versus controls / dexpanthenol 5% / QEQLERALNSS formulation
Excerpt: In this assay the cosmetic facial skin appearance upon application of the formulations of this invention was monitored. For that purpose, the commercially available state-of-the-art facial skin imaging and data analysis platform, the Canfield Bio Visia™, was utilized, (see here: https://www.canfieldsci.com/imaging-systems/visia-complexion-analysis/). This platform provides the possibility of a i) highly standardized, ii) highly reproducible, iii) quantitative, iv) non-invasive, and vi) subject or tester bias-free skin quality analysis. It records several photos of the face from different angles and records absorption/reflection spectra (see figure: Canfield VISIA facial skin analysis platform). […] The in-built software standardizes every parameter by comparison to a large database of skin feature norms and returns a value in the range of 0%-to 100% to permit inter-individual subject comparison.
Healthy subjects received cosmetic creams with formulations of this invention or controls in a blinded manner, i.e. the subjects were unaware of the identity of the received cosmetic cream. […] Subject skin quality was assessed before the start of the application and after one month (31±3 days). As a control, to account for seasonal and lifestyle change associated skin quality changes, quality of the hand exterior surface was monitored as well. […]

[4] = tested on: UV light-induced erythema on skin of healthy subjects; test: Erythema recovery assay (UVB light-induced erythema, doubled MED); type: in vivo, human; conditions: 20 μl lotion on 1×1 cm^2 area, 6 hours after exposure, normalized redness
Excerpt: Another means of measuring the efficacy of tissue-protection exerted by any formulation is the speed of skin recovery from a UVB light-induced erythema such as common sunburns. Erythema are skin irritations with enhanced redness of the skin due to local hyperaemia (enhanced blood flow in superficial capillaries) that is associated with repair processes in the skin. The quicker the repair process is, the quicker the hyperaemia gets shut down and thus the quicker the skin redness gets reduced to normal levels. Accordingly, the redness can be measured as a proxy for the damage status of the skin.
In this assay, healthy subjects received the doubled minimal erythema dose (MED) on skin areas of about 1×1 cm^2 on the left arm. Beforehand, the MED was determined individually for each subject by exposing other skin areas to increasing intensities of UV light emitted by the UV6 lamp (280-360 nm) of the Waldmann UV 802 L device. […]
Before light double MED exposure and after 6 hours, skin redness in the exposed area was spectroscopically measured using the ‘chroma meter CR-400’ manufactured by Konica Minolta. Redness of every area in every subject 6 hours after the exposure was normalized to the redness of the same area before the exposure by division of measured redness values. […]

skin = test: Relative cosmetic relevance in over-all skin-protective activity; parameters: species or system human

| Compound | unwanted skin reactions caused by skin-irritating or sensitizing effects [2] | overall skin tolerance compatibility [2] | further results |
| --- | --- | --- | --- |
| CC(C)(CO)[C@@H](O)C(=O)NCCCO [Dexpanthenol] | – | – | change of acne [1]: slightly reduced |
| QEQLERALNSS [Peptide 0, QEQLERALNSS, reference compound] | did not trigger any unwanted skin reactions | – | – |
| QDQLERALNTS [Peptide 4, QDQLERALNTS] | did not trigger any unwanted skin reactions | still rated good | – |
| QDQLERALNST [Peptide 3, QDQLERALNST] | did not trigger any unwanted skin reactions | improved overall skin tolerance compatibility as excellent | – |
| NEQLERALNTS [Peptide 2, NEQLERALNTS] | did not trigger any unwanted skin reactions | improved overall skin tolerance compatibility as excellent | – |
| NEQLERALNST (RRQEQLERALNSSRR; ′Peptide 0′ plus vasculature relaxation stimulating agents at 5′- and 3′ end;) [Peptide 1] | – | – | improvement of measured skin parameters (spots, wrinkles, smoothness) [3]: performed even better than the formulations with the previously described […] peptide; double MED-induced skin redness (erythema) [4]: performed even better than the formulations with the previously described […] peptide; relative cosmetic relevance in over-all skin-protective activity (rank order) (skin): EPO<EPO fragments 1-3<Peptide 0, 1<Peptide 3<Peptide 2<Peptide 4 |
